The source of these data is paper PMC4735555, “Crystal structure of the N-myristoylated lipopeptide-bound MHC class I complex” (Nature Communications, 2016).

One test deals with Mamu-B*098. As to the kind of experiment: Biolayer interferometry binding to β2m-linked Mamu-B*098. On the set-up: species or system rhesus macaque. The note with it: Octet RED96; biotinylated β2m-linked Mamu-B*098; lipopeptide 10 μM, 45 min, then 30 min without; 20 mM Tris-HCl pH 7.5, 150 mM NaCl, 2% DMSO; 30 °C; representative of three independent experiments. An excerpt:
(§1) Single-chain MHC proteins in which β2m was linked via a Gly-Ser linker (GGGGSGGSGSGGGSS) to the ectodomain of either Mamu-B*098 or Mamu-A*02, followed by a biotinylation sequence peptide (LHHILDAQKMVWNHR), were also expressed in E. coli and were purified in a similar manner to the trimer complex of Mamu-B*098, β2m and C14nef5. The β2m-linked Mamu-B*098 protein was refolded without C14nef5, whereas the β2m-linked Mamu-A*02 protein was refolded in the presence of the YY9 peptide (YTSGPGIRY). These recombinant proteins (3 mg) were biotinylated by being incubated for 12 h at 20 °C with 2 μg of BirA enzyme (Sigma-Aldrich, St Louis, MO) in a biotinylation buffer containing 100 mM Tris-HCl pH 8.0, 5 mM MgCl2, 4.5 mM ATP and 4 mM D-biotin, and were purified by size-exclusion chromatography.
The binding of ligands to MHC class I molecules was analysed using the Octet RED96 system equipped with a streptavidin-conjugated biosensor (Pall ForteBio, Menlo Park, CA) according to the manufacturer's instructions. Biotinylated β2m-linked Mamu-B*098 and Mamu-A*02 proteins were immobilized on the sensor tip surface with a signal magnitude of ∼5.0 nm. […] After reference subtraction, binding signals were analysed using the BIAevaluation 3.1 software. […]
(Biolayer interferometry detects binding as a change in optical thickness at a sensor tip.)

The subject of another test is 2N5.1 TCR. As to the kind of experiment: SPR binding of soluble 2N5.1 TCR to antigen-loaded Mamu-B*098. On the set-up: species or system rhesus macaque. The note with it: in words; Biacore 3000, 30 °C; soluble 2N5.1 TCR αβ dimer; lipopeptide-loaded Mamu-B*098 immobilized; pH 7.5.
Excerpt: as §1
TCR dimers were generated by the disulfide-linked TCR method. […]
The binding of ligands to MHC class I molecules was analysed using the Octet RED96 system equipped with a streptavidin-conjugated biosensor (Pall ForteBio, Menlo Park, CA) according to the manufacturer's instructions. […] After reference subtraction, binding signals were analysed using the BIAevaluation 3.1 software. […]

The subject of test [1] is 2N5.1 (LLC-MK2 cells transfected with other rhesus MHC class I genes). As to the kind of experiment: Ag presentation by other (non-B*098) Mamu class I LLC-MK2 transfectants to 2N5.1. Type of test: cell-based, rhesus macaque. The note with it: LLC-MK2 transfected with each rhesus MHC class I cDNA clone, other than Mamu-B*098; IFN-γ; C14nef5. On the procedure: Figure 1 Identification of Mamu-B*098 as a lipopeptide Ag-presenting molecule. (a) LLC-MK2 cells transfected with each of the rhesus MHC class I genes were tested for their ability to present C14nef5 to 2N5.1. […] PBMCs obtained from a donor with the potential to present C14nef5 to 2N5.1 were used as a positive control. Experiments were performed in triplicate. Mean values with s.e.m. are shown. (b) The binding of lipopeptide Ags to recombinant β2m-linked Mamu-B*098 and Mamu-A*02 proteins was monitored by biolayer interferometry. Representative data from three independent experiments are shown. Mamu-A*02, a rhesus MHC class I allele known to bind 9-mer peptides, was used as a negative control. (c) Plate-coated MHC class I molecules were tested for their ability to present lipopeptide Ags to 2N5.1. The Ag-specific T-cell response was assessed by measuring the amount of IFN-γ released into the culture medium. Mean values with s.e.m. are shown. […] The original data (coloured as indicated) are depicted with the curve fit (grey) overlaid. The steady-state affinity plot (inset) is also shown. Three independent experiments were performed and mean equilibrium-dissociation constant (KD) values ±s.d. are shown. (e) Amino acid sequences of Mamu-B*098, HLA-B*27:09, Mamu-B*17:01 and human CD1a are shown. […] Solid and open triangles indicate paired and unpaired cysteine residues, respectively. […]

For “C14-Gly-Gly-Ala-Ile-Ser [C14nef5, N-myristoylated 5-mer peptide (C14-Gly-Gly-Ala-Ile-Ser; C14nef5) derived from the SIV Nef protein]”, in the test on Mamu-B*098, the “physical interaction with immobilized Mamu-B*098 (biolayer interferometry)” value is reported as “demonstrated for Mamu-B*098”. Also, in the test on 2N5.1 TCR, the “interaction of 2N5.1 TCR with lipopeptide-loaded Mamu-B*098 (SPR)” value was “high-affinity interaction”. For the same substance, the “Ag presentation capacity of other Mamu class I transfectants” value in test [1] is “None of the cell transfectants exhibited the Ag presentation capacity”.
